SMILES strings stand for the structures.

Type in all cases: in vivo
For experiment [1], the system named is dogs suffering behavior aberrations and/or anxiety. In words: Example 5: behavior aberrations and anxiety, C-BARQ (canine). As to conditions: C-BARQ day 0 vs 60, SID, 0 (no improvement) to 3 (marked improvement). The text has this: (§1) This example examines the ability of embodiments of the invention versus Clomicalm® to reduce behavior aberrations and anxiety.
(§2) The first patient group is twenty dogs suffering behavior aberrations and/or anxiety, as determined by the canine behavioral assessment and research questionnaire (“C-BARQ”). See, e.g., P. Wiener et al., Use of questionnaire-based data to assess dog personality, 16 JOURNAL OF VETERINARY BEHAVIOR 81-85 (2016). The second patient group is twenty cats suffering behavior aberrations and/or anxiety, as determined by the feline behavioral assessment and research questionnaire (“Fe-BARQ”).
(§3) Each group is broken into five groups of four animals. The first group receives Clomicalm® as the sole active agent; the second group receives a composition comprising HMW HA as the sole active agent; the third group receives a composition comprising CBD as the sole active agent; the fourth group receives a composition comprising HMW HA and CBD as the active agents; and the fifth group receives a composition comprising HMW HA, CBD, valerian root, and scutillaria as the active agents.
(§4) Each composition is administered for a period of sixty (60) days, once a day (“SID”). Owners complete the species-appropriate C-BARQ or Fe-BARQ on days 0 and 60 of treatment. The results from the overall questionnaire are averaged and characterized as no improvement (score of 0), mild improvement (score of 1), moderate improvement (score of 2), or marked improvement (score of 3).
The following canine scores are observed and the results depicted in FIG. 5a: […]

The subject of experiment [2] is cats suffering behavior aberrations and/or anxiety. The experiment is described as follows: Example 5: behavior aberrations and anxiety, Fe-BARQ (feline). Particulars: Fe-BARQ day 0 vs 60, SID, 0 (no improvement) to 3 (marked improvement).
Text: as §1, §2, §3, §4
The following feline scores are observed and the results depicted in FIG. 5b: […]

The test system of experiment [3] is dogs suffering from seizures. In words: Example 6: seizures in dogs. As to conditions: seizure scale 1 (seizure-free) to 10 (daily or multiple seizures). The text has this:
(§5) This example examines the ability of embodiments of the invention versus phenobarbital to treat seizures.
(§6) The patient group is twenty-four dogs suffering from seizures as diagnosed by their referring veterinarian. The patient group is broken into six groups of four animals. The first group receives phenobarbital as the sole active agent; the second group receives a composition comprising phenobarbital and Keppra®; the third group receives a composition comprising HMW HA as the sole active agent; the fourth group receives a composition comprising CBD as the sole active agent; the fifth group receives a composition comprising HMW HA and CBD as the active agents; and the sixth group receives a composition comprising HMW HA, CBD, valerian root, and scutillaria as the active agents.
(§7) Each composition is administered for a period of sixty (60) days, BID. Each dog is evaluated on days 0 (“Initial Score”), 15, 30, 45, and 60 (“Final Score”) of treatment. The results are averaged and characterized on a scale of 1 (seizure-free) to 10 (daily seizures or multiple seizures during the event).
The following canine scores are observed and the results depicted in FIG. 6: […]

Experiment [4] has as its system dogs suffering from seizures. The experiment is described as follows: Example 14: seizures in dogs (CBD Complex). As to conditions: seizure scale 1 (seizure-free) to 10 (daily or multiple seizures).
Text: as §5
as §6, with “and CBD Complex as the” for “and CBD as the”, “HMW HA, CBD Complex, valerian root,” for “HMW HA, CBD, valerian root,”
as §7
The following canine scores are observed and the results depicted in FIG. 14: […]

Take `CN(C)CCCN1c2ccccc2CCc2ccc(Cl)cc21` [Clomicalm ®]: the “Improvement Score” value is “.5” in experiment [1] and “.4” in experiment [2].
For `CCC1(c2ccccc2)C(=O)NC(=O)NC1=O` [Phenobarbital], the “Initial Score” value in experiment [3] (day 0) and in experiment [4] (day 0) was 9 each time. The “Final Score” value was found to be 8 in experiment [3] (day 60, BID) and 8 in experiment [4] (day 60, BID).

The values above are taken from patent US20220054532A1, “VETERINARY COMPOSITIONS AND METHODS OF USE THEREFOR” (priority 2019, published 2022).
